Results on 1 molecule are retold here after patent US20120122919A1, “PHARMACEUTICAL COMPOSITION COMBINING TENATOPRAZOLE AND A HISTAMINE H2-RECEPTOR ANTAGONIST” (priority 2002, published 2012).

This series in a line: phase I pharmacokinetic study of tenatoprazole, oral single dose and daily dose for 7 days. Type of series: in vivo, Caucasian individuals. How it is done: The doses tested were 10, 20, 40 and 80 mg of tenatoprazole.

As for `COc1ccc2[nH]c([S+]([O-])Cc3ncc(C)c(OC)c3C)nc2n1` (stereo not drawn) [tenatoprazole, 5-methoxy-2-[[(4-methoxy-3,5-dimethyl-2-pyridyl)methyl]sulfinyl]imidazo[4,5-b]pyridine], the half-life at 7 days (human, plasma, after administration for seven days, depending on the dose (10-80 mg), read-out: mean elimination half-lives) was in the range of 300 to 552 min. Besides, the T½ elimination half-life is, setting by setting: (repeated dose (7 days), 40 mg) 9 h; (single dose, 80 mg) 7 h.
